The values below come from patent US20050170331A1, “Method for characterizing metabolic stability of a drug” (priority 2003, published 2005).

In the series the test system is hepatocytes. The experiment in a line: Metabolic stability in hepatocyte suspension by hyperpolarised 13C NMR. The series is classed as in vitro ADME. The conditions noted are these: hepatocytes 1·10^6 cells/ml in RPMI 1640, 37° C., 30 s incubation, drug candidate approximately 0.46 mM, DNP hyperpolarised. As to the method:
The concentration of hepatocytes was 1·10^6 cells/ml in a suspension of RPMI 1640 medium. 1 ml of this suspension was placed in a 10 mm NMR tube with a bottom plug, reducing the active volume to […]. The tube was placed in a 9.4 T magnet with the temperature of the probe equilibrated to 37° C. A tube was connected to the bottom of the NMR tube to allow for injection of the hyperpolarised drug candidate solution into the cell suspension.
^13C2-sodiumfumerate was diluted in water and mixed (1:1 w/w) with a glycerol solution containing 40 mM trityl. The liquid sample was frozen as droplets in liquid nitrogen. 84.3 mg of this sample (3.84 mg of ^13C2-sodiumfumerate) was placed in the polariser and hyperpolarised for two hours at 93.945 GHz and 100 mW (DNP method). The dissolution was performed with Tris buffer containing 100 mg/l EDTA (pH 7.4, 20 mM, 6 ml). The active dissolution volume was 5.5 ml with full recovery of the sample. A 1 ml syringe was filled completely (volume: 1100 μl) with the dissolved ^13C2-sodiumfumerate solution, a total of 100 μl of this solution was quickly transferred to the liquid-NMR magnet and injected into the cell suspension, resulting in a total drug candidate concentration of approximately 0.46 mM. […]

Regarding `O=C([O-])/C=C/C(=O)[O-].[Na+].[Na+]` [^13C2-sodiumfumerate], the “metabolites of the drug candidate observed in the 13C NMR spectrum of the mixture” value is “two different metabolites of the drug candidate, namely succinate and malate”.
